Source: a compilation of properties of binary mixtures (doi:10.1007/s10953-010-9562-5)

Test: xn = mol fraction of the nth substance listed
Details: 101 kPa

CCCC[N+]1(C)CCCC1.O=S(=O)([N-]S(=O)(=O)C(F)(F)F)C(F)(F)F + CC1COC(=O)O1
Details	electrical conductivity [S/m]	viscosity [mPa·s]
253.15 K, x2 = 0	0.017	–
253.15 K, x2 = 0.05	0.021	–
253.15 K, x2 = 0.16	0.032	–
253.15 K, x2 = 0.26	0.049	–
253.15 K, x2 = 0.32	0.06	–
253.15 K, x2 = 0.37	0.074	–
253.15 K, x2 = 0.42	0.09	–
253.15 K, x2 = 0.53	0.13	–
253.15 K, x2 = 0.58	0.155	–
253.15 K, x2 = 0.68	0.213	–
253.15 K, x2 = 0.74	0.243	–
253.15 K, x2 = 0.84	0.287	–
253.15 K, x2 = 0.95	0.232	–
253.15 K, x2 = 0.97	0.165	–
258.15 K, x2 = 0	0.031	–
258.15 K, x2 = 0.05	0.037	–
258.15 K, x2 = 0.11	0.043	–
258.15 K, x2 = 0.21	0.061	–
258.15 K, x2 = 0.32	0.086	–
258.15 K, x2 = 0.37	0.102	–
258.15 K, x2 = 0.42	0.121	–
258.15 K, x2 = 0.47	0.144	–
258.15 K, x2 = 0.53	0.169	–
258.15 K, x2 = 0.63	0.231	–
258.15 K, x2 = 0.68	0.266	–
258.15 K, x2 = 0.74	0.302	–
258.15 K, x2 = 0.79	0.333	–
258.15 K, x2 = 0.84	0.353	–
258.15 K, x2 = 0.89	0.344	–
258.15 K, x2 = 0.95	0.274	–
258.15 K, x2 = 0.97	0.182	–
263.15 K, x2 = 0	0.045	–
263.15 K, x2 = 0.11	0.062	–
263.15 K, x2 = 0.16	0.073	–
263.15 K, x2 = 0.21	0.086	–
263.15 K, x2 = 0.26	0.102	–
263.15 K, x2 = 0.32	0.12	–
263.15 K, x2 = 0.42	0.165	–
263.15 K, x2 = 0.47	0.193	–
263.15 K, x2 = 0.58	0.261	–
263.15 K, x2 = 0.63	0.3	–
263.15 K, x2 = 0.68	0.341	–
263.15 K, x2 = 0.74	0.381	–
263.15 K, x2 = 0.79	0.415	–
263.15 K, x2 = 0.84	0.432	–
263.15 K, x2 = 0.95	0.323	–
263.15 K, x2 = 0.97	0.232	–
268.15 K, x2 = 0	0.072	–
268.15 K, x2 = 0.05	0.082	–
268.15 K, x2 = 0.11	0.094	–
268.15 K, x2 = 0.16	0.108	–
268.15 K, x2 = 0.21	0.124	–
268.15 K, x2 = 0.26	0.143	–
268.15 K, x2 = 0.32	0.165	–
268.15 K, x2 = 0.37	0.19	–
268.15 K, x2 = 0.42	0.218	–
268.15 K, x2 = 0.47	0.251	–
268.15 K, x2 = 0.53	0.288	–
268.15 K, x2 = 0.58	0.328	–
268.15 K, x2 = 0.63	0.372	–
268.15 K, x2 = 0.74	0.461	–
268.15 K, x2 = 0.79	0.496	–
268.15 K, x2 = 0.84	0.512	–
268.15 K, x2 = 0.89	0.487	–
268.15 K, x2 = 0.95	0.377	–
268.15 K, x2 = 0.97	0.296	–
273.15 K, x2 = 0.05	0.122	–
273.15 K, x2 = 0.11	0.137	–
273.15 K, x2 = 0.16	0.154	–
273.15 K, x2 = 0.21	0.173	–
273.15 K, x2 = 0.32	0.22	–
273.15 K, x2 = 0.37	0.249	–
273.15 K, x2 = 0.47	0.316	–
273.15 K, x2 = 0.53	0.356	–
273.15 K, x2 = 0.58	0.399	–
273.15 K, x2 = 0.63	0.444	–
273.15 K, x2 = 0.68	0.491	–
273.15 K, x2 = 0.79	0.57	–
273.15 K, x2 = 0.84	0.585	–
273.15 K, x2 = 0.89	0.559	–
273.15 K, x2 = 0.95	0.445	–
273.15 K, x2 = 0.97	0.375	–
278.15 K, x2 = 0	0.152	–
278.15 K, x2 = 0.05	0.168	–
278.15 K, x2 = 0.11	0.185	–
278.15 K, x2 = 0.16	0.205	–
278.15 K, x2 = 0.21	0.228	–
278.15 K, x2 = 0.32	0.281	–
278.15 K, x2 = 0.37	0.312	–
278.15 K, x2 = 0.42	0.347	–
278.15 K, x2 = 0.47	0.385	–
278.15 K, x2 = 0.53	0.426	–
278.15 K, x2 = 0.58	0.47	–
278.15 K, x2 = 0.63	0.516	–
278.15 K, x2 = 0.68	0.562	–
278.15 K, x2 = 0.74	0.604	–
278.15 K, x2 = 0.79	0.637	–
278.15 K, x2 = 0.84	0.649	–
278.15 K, x2 = 0.89	0.621	–
278.15 K, x2 = 0.97	0.414	–
283.15 K, x2 = 0	0.193	–
283.15 K, x2 = 0.11	0.234	–
283.15 K, x2 = 0.21	0.284	–
283.15 K, x2 = 0.26	0.313	–
283.15 K, x2 = 0.32	0.346	–
283.15 K, x2 = 0.42	0.421	–
283.15 K, x2 = 0.47	0.464	–
283.15 K, x2 = 0.53	0.51	–
283.15 K, x2 = 0.63	0.606	–
283.15 K, x2 = 0.74	0.697	–
283.15 K, x2 = 0.79	0.728	–
283.15 K, x2 = 0.84	0.735	–
288.15 K, x2 = 0	0.249	–
288.15 K, x2 = 0.05	0.271	–
288.15 K, x2 = 0.11	0.295	–
288.15 K, x2 = 0.16	0.322	–
288.15 K, x2 = 0.21	0.351	–
288.15 K, x2 = 0.32	0.42	–
288.15 K, x2 = 0.37	0.459	–
288.15 K, x2 = 0.42	0.501	–
288.15 K, x2 = 0.53	0.595	–
288.15 K, x2 = 0.58	0.645	–
288.15 K, x2 = 0.63	0.696	–
288.15 K, x2 = 0.68	0.745	–
288.15 K, x2 = 0.84	0.821	–
288.15 K, x2 = 0.89	0.776	–
288.15 K, x2 = 0.95	0.63	–
288.15 K, x2 = 0.97	0.528	–
293.15 K, x2 = 0.05	0.328	70.58
293.15 K, x2 = 0.11	0.357	59.09
293.15 K, x2 = 0.16	0.388	50.53
293.15 K, x2 = 0.21	0.421	44.05
293.15 K, x2 = 0.26	0.458	38.97
293.15 K, x2 = 0.32	0.498	34.77
293.15 K, x2 = 0.37	0.542	31.1
293.15 K, x2 = 0.42	0.588	27.69
293.15 K, x2 = 0.47	0.638	24.42
293.15 K, x2 = 0.58	0.742	18.11
293.15 K, x2 = 0.63	0.794	15.13
293.15 K, x2 = 0.68	0.843	12.36
293.15 K, x2 = 0.74	0.884	9.88
293.15 K, x2 = 0.84	0.908	6.05
293.15 K, x2 = 0.89	0.853	4.71
293.15 K, x2 = 0.95	0.692	3.65
293.15 K, x2 = 0.97	0.582	–
298.15 K, x2 = 0	0.364	68.16
298.15 K, x2 = 0.05	0.394	56.05
298.15 K, x2 = 0.11	0.425	47.09
298.15 K, x2 = 0.16	0.46	40.44
298.15 K, x2 = 0.21	0.497	35.42
298.15 K, x2 = 0.26	0.538	31.51
298.15 K, x2 = 0.47	0.73	20.25
298.15 K, x2 = 0.53	0.784	17.72
298.15 K, x2 = 0.58	0.839	15.23
298.15 K, x2 = 0.68	0.942	10.56
298.15 K, x2 = 0.74	0.982	8.51
298.15 K, x2 = 0.79	1	6.74
298.15 K, x2 = 0.84	0.997	5.29
298.15 K, x2 = 0.89	0.934	4.14
298.15 K, x2 = 0.95	0.757	3.26
298.15 K, x2 = 0.97	0.628	–
303.15 K, x2 = 0	0.426	54.05
303.15 K, x2 = 0.05	0.458	44.95
303.15 K, x2 = 0.11	0.494	38.15
303.15 K, x2 = 0.16	0.532	33.05
303.15 K, x2 = 0.26	0.618	26.04
303.15 K, x2 = 0.32	0.666	23.45
303.15 K, x2 = 0.37	0.717	21.15
303.15 K, x2 = 0.47	0.828	16.91
303.15 K, x2 = 0.53	0.886	14.85
303.15 K, x2 = 0.58	0.944	12.83
303.15 K, x2 = 0.68	1.05	9.03
303.15 K, x2 = 0.79	1.11	5.9
303.15 K, x2 = 0.89	1.02	3.7
303.15 K, x2 = 0.95	0.826	2.93
303.15 K, x2 = 0.97	0.652	–
308.15 K, x2 = 0	0.505	44.38
308.15 K, x2 = 0.05	0.54	36.9
308.15 K, x2 = 0.11	0.578	31.36
308.15 K, x2 = 0.16	0.619	27.23
308.15 K, x2 = 0.21	0.663	24.11
308.15 K, x2 = 0.26	0.711	21.64
308.15 K, x2 = 0.32	0.762	19.59
308.15 K, x2 = 0.42	0.872	16.04
308.15 K, x2 = 0.47	0.931	14.35
308.15 K, x2 = 0.53	0.992	12.68
308.15 K, x2 = 0.58	1.05	11.01
308.15 K, x2 = 0.63	1.11	9.39
308.15 K, x2 = 0.68	1.16	7.85
308.15 K, x2 = 0.74	1.2	6.44
308.15 K, x2 = 0.79	1.22	5.2
308.15 K, x2 = 0.84	1.2	4.17
308.15 K, x2 = 0.89	1.11	3.34
308.15 K, x2 = 0.95	0.892	2.68
308.15 K, x2 = 0.97	0.691	–
313.15 K, x2 = 0	0.57	35.76
313.15 K, x2 = 0.05	0.611	30.14
313.15 K, x2 = 0.11	0.654	25.92
313.15 K, x2 = 0.16	0.701	22.74
313.15 K, x2 = 0.26	0.803	18.29
313.15 K, x2 = 0.37	0.916	15.11
313.15 K, x2 = 0.42	0.975	13.68
313.15 K, x2 = 0.53	1.1	10.88
313.15 K, x2 = 0.58	1.16	9.5
313.15 K, x2 = 0.63	1.21	8.15
313.15 K, x2 = 0.68	1.26	6.87
313.15 K, x2 = 0.74	1.29	5.69
313.15 K, x2 = 0.89	1.18	3.02
313.15 K, x2 = 0.95	0.946	2.45
318.15 K, x2 = 0.11	–	21.73
318.15 K, x2 = 0.16	–	19.16
318.15 K, x2 = 0.21	–	17.18
318.15 K, x2 = 0.26	–	15.58
318.15 K, x2 = 0.32	–	14.22
318.15 K, x2 = 0.37	–	12.99
318.15 K, x2 = 0.42	–	11.81
318.15 K, x2 = 0.53	–	9.47
318.15 K, x2 = 0.58	–	8.3
318.15 K, x2 = 0.63	–	7.16
318.15 K, x2 = 0.68	–	6.06
318.15 K, x2 = 0.74	–	5.05
318.15 K, x2 = 0.79	–	4.16
318.15 K, x2 = 0.84	–	3.39
318.15 K, x2 = 0.95	–	2.26
